Structures are written as SMILES.

Experiment [1] in a line: intraperitoneal glucose tolerance test after intravenous epicatechin (FIG. 1). It is filed as in vivo. The settings on record: rats; epicatechin intravenously 30 min before glucose loading 2 g/kg. On the procedure: Each epicatechin was injected intravenously 30 min before the glucose loading.
Experiment [2] relates to cultured adipocytes, myocytes and hepatocytes. As to the kind of experiment: glucose uptake ability at cultured cells (FIG. 3). The settings on record: for normal glucose uptake mechanism after a meal: hepatocytes, adipocytes and muscle cells. The class given is cell-based. The source says:
We can see that basal glucose uptake ability and insulin stimulated glucose uptake ability decreased based on the given EGCG concentration.

A further experiment deals with KATP channels. As to the kind of experiment: inhibition of KATP channels and their ATP/PIP sensitivity. The settings on record: for effect on KATP channels: via allosteric interactions with phospholipids of the lipid membrane. It is filed as biochemical. The method, then: EGCG and ECG with gallate ester groups inhibited KATP channels via allosteric interactions with phospholipids of the lipid membrane. But the effective EGCG concentration was more than 10 μM. Further, EGCG is the only green tea epicatechin that decreases the sensitivity of ATP and PIP to the KATP channel. By this mechanism, we concluded that EGCG caused decrease in insulin secretion in response to glucose in the β-cell of pancreas. Patients with diabetes or people with a risk factor for diabetes should be careful because the effective concentration of EGCG for this mechanism could be 1-10 μM, which is an achievable concentration when a person drinks 2-8 cups of green tea while fasting.

[3] abbreviates: adipocytes, myocytes and hepatocytes, based on the given EGCG concentration.

On to `O=C(O[C@@H]1Cc2c(O)cc(O)cc2O[C@@H]1c1cc(O)c(O)c(O)c1)c1cc(O)c(O)c(O)c1` [EGCG, (−)-epigallocatechin-3-gallate], for which the “blood glucose concentration during intraperitoneal glucose tolerance test” value in experiment [1] is given as “High blood glucose level”. In addition, in experiment [2], the “blood EGCG level at which the glucose uptake inhibition can occur” value is listed as “lower than 10 μM” and the “normal glucose uptake mechanism after a meal” value is reported as “inhibited”. In experiment [2] (setting [3]), the “basal glucose uptake ability” value is given as “decreased” and the “insulin stimulated glucose uptake ability” value is “decreased”. Also, in the experiment with KATP channels, the “effective concentration for KATP channel inhibition” value is given as “more than 10 μM”; the “sensitivity of ATP and PIP to the KATP channel” value is “decreases”; the “effect on KATP channels” value was “inhibited”. In addition, the “effective concentration for decreasing ATP and PIP sensitivity of the KATP channel” value with KATP channels (stated as 'could be') was in the range of 1 to 10 µM.

On to `O=C(O[C@@H]1Cc2c(O)cc(O)cc2O[C@@H]1c1ccc(O)c(O)c1)c1cc(O)c(O)c(O)c1` [ECG, (−)-epicatechin-3-gallate], for which the “blood glucose concentration during intraperitoneal glucose tolerance test” value in experiment [1] is “High blood glucose level”. Besides, the “normal glucose uptake mechanism after a meal” value in experiment [2] is recorded as “inhibited”. Also, the “effect on KATP channels” value in the experiment on KATP channels is reported as “inhibited”.

The values are drawn from patent US20100178365A1, “EPICATECHIN DEFICIENT GREEN TEA” (priority 2007, published 2010).
